Test results from patent publication US5399785A, “Tyrosinase activity inhibitor” (Nippon Paint Co., Ltd., priority 1992, dated 1995).
pIC50: −log10 of the molar value.

Biological target: tyrosinase (Sigma Co.)
Assay: Measurement of tyrosinase activity inhibition (L-DOPA substrate, absorbance at 417 nm)
Assay type: biochemical
Conditions: substrate 2 mM L-DOPA, phosphate-potassium buffer pH 6.8, tyrosinase 0.5 mg/ml, absorbance 417 nm; read-out: IC50, concentration of tyrosinase activity inhibitor when the tyrosinase activity inhibition (%) is 50%
Procedure: The measurement was conducted by the following method.
The reaction reagent used are as follows:
Substrate: 2 mM L-DOPA (Wako Junyaku Co.)
Buffer: 0.1 mM phosphate-potassium solution (pH 6.8)
Inhibitor: 1% solution of the compound of the formula (I), 4-ethylresorcinol, compound of the formula (II), 5-methylresorcinol and compound of the formula (III), 6,6'-di-n-propyl-2,2',4,4'-tetrahydroxydiphenylmethane
Enzyme: tyrosinase (Sigma Co.), 0.5 mg/ml
(2) Measurement of tyrosinase activity inhibition %
In the case of measuring tyrosinase activity inhibition %, a sample solution (No.1 to No.3) was prepared in a spectrophotometric cell (1 ml), by mixing each ingredient in the following formulation shown in Table 1. […]
Formulation of sample solution (ml)
An enzyme solution (0.20 ml) was added to the cell. Three minutes later, the measurement of temporal changes of an absorbance (417 nm) by means of a spectrophotometer had started. The inhibition % was calculated based on the following equation:
Inhibition %=[1-(Ab.3-Ab.1/Ab.2-Ab.1)]×100

Going from Cc1ccc(O)cc1O [drawing 4 Methyl] to CCc1ccc(O)cc1O [drawing 4 Ethyl, 4-ethylresorcinol], the pIC50 rises from 5.10 to 5.70 (0.60 log units). The second is the more potent here.

Compared with CCCc1cc(O)cc(O)c1 [drawing 5 n-Propyl], CCCCCc1cc(O)cc(O)c1 [drawing 5 n-Pentyl] is 0.40 log units higher in pIC50: 3.30 for the first, 3.70 for the second. The second is the more potent here.

CCCCCCCCCc1ccc(O)cc1O [drawing 4 n-Nonyl] and CCCCCCCc1ccc(O)cc1O [drawing 4 n-Heptyl] are within 0.2 log units of each other in pIC50: 6.05 for the first, 6.15 for the second.

Compared with CCCc1cc(O)cc(O)c1Cc1c(O)cc(O)cc1CCC [Example 3, 6,6'-di-n-propyl-2,2',4,4'-tetrahydroxydiphenylmethane], CCCCCCCc1cc(O)cc(O)c1 [drawing 5 n-Heptyl] is 0.90 log units lower in pIC50: 4.60 for the first, 3.70 for the second. The first is the more potent here.

CCCCCc1ccc(O)cc1O [drawing 4 n-Pentyl] and CCCc1ccc(O)cc1O [drawing 4 n-Propyl] are within 0.2 log units of each other in pIC50: 6.10 for the first, 6.05 for the second.

First: CCc1cc(O)cc(O)c1 [drawing 5 Ethyl]
Second: Cc1cc(O)cc(O)c1 [drawing 5 Methyl, 5-methylresorcinol]
The pIC50 of the first is 0.85 log units higher: 3.15 for the first, 2.30 for the second.

CCCCCCCCCc1cc(O)cc(O)c1 [drawing 5 n-Nonyl] showed a pIC50 of 3.70.

Tested on: tyrosinase
Assay: not given
Conditions: as described in Japanese Patent Kokai No. 4-169515; cited from earlier work

In the case of NC[C@H]1CC[C@H](C(=O)O)CC1 [tranexamic acid], the “tyrosinase activity inhibition effect” value is given as “low tyrosinase activity inhibition effect”.

Tested on: not given
Assay: not given
Conditions: prior-art statement, no test described; cited from earlier work

For OC[C@H]1O[C@@H](Oc2ccc(O)cc2)[C@H](O)[C@@H](O)[C@@H]1O [arbutin], the toxicity is given as “has toxicity”.
